Test results from ChEMBL document CHEMBL1201862, “PubChem BioAssay data set” (2004).
Calls of active or inactive are those of the source.

What was measured:
[1] = cytotoxicity in MIN6 insulinoma cells, dose response, cytotoxicity control, cell-based, mouse insulinoma (AID 2122); format: functional;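 note: confirmatory high-throughput counterscreen run to flag cytotoxic compounds; mouse MIN-6 beta cells carrying an insulin promoter eGFP reporter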
[2] = insulin promoter down-regulators in MIN6 cells, imaging, high-content screening, mouse beta cells (AID 1628); format: functional
[3] = target: Beta-2 adrenergic receptor (Homo sapiens, UniProt P07550); assay: beta2AR agonists driving receptor internalization, dose response, cell-based, FAP fluorogen, flow cytometry, cherry pick 1 (AID 588763); format: functional
[4] = test system: HeLa; assay: HeLa cell cytotoxicity, dose response, cytotoxicity control, 48 h, plate reader, cherry-picks (AID 504942); format: functional, cell-based; conditions: Homo sapiens
[5] = inhibitors of SNCA 5'UTR-driven reporter translation, confirmation, H4 neuroglioma cells, luminescence (AID 1988); format: functional, cell-based
[6] = target: Acyl-homoserine lactone acylase PvdQ (Pseudomonas aeruginosa (strain LESB58), UniProt Q9I194); assay: P. aeruginosa PvdQ acylase inhibitors, dose response, biochemical, fluorescence, plate reader and imaging, cherry-picks (AID 493231)
[7] = inhibitors of firefly luciferase expression or activity, dose response, H4 neuroglioma cells, luminescence (AID 1990); format: functional, cell-based
[8] = target: Bcl-2-like protein 10 (Homo sapiens, UniProt Q9HD36); assay: Isothermal titration calorimetry (ITC) with Bcl-B and compounds active in primary screen. [Related pubchem assays (depositor defined):AID1693]; format: functional
[9] = target: CAAX prenyl protease 2 (Homo sapiens, UniProt Q9Y256); assay: human Rce1 protease inhibitors, dose response, biochemical, yeast membranes, quenched-peptide fluorescence, cherry-pick (AID 588849)
[10] = target: T1, CAAX prenyl protease 2 (Saccharomyces cerevisiae S288c, UniProt Q03530); format: biochemical
T1 sequence (Q03530 whole entry): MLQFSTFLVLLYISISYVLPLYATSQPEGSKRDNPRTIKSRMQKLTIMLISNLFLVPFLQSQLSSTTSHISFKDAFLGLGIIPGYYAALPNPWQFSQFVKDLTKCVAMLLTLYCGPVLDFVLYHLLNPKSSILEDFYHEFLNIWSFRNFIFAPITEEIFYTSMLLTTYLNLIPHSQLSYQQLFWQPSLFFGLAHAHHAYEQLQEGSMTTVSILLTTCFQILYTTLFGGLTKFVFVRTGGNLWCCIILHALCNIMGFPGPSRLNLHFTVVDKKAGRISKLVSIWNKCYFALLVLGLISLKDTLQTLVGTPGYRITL

[11] = target: Trypsin (Sus scrofa, UniProt P00761); assay: porcine trypsin inhibitors, dose response, selectivity assay for Rce1 protease inhibitor project, biochemical, quenched peptide fluorescence, cherry-pick (AID 488789)
[12] = target: T2, Endoribonuclease toxin MazF (Escherichia coli K-12, UniProt P0AE70); assay: MazF toxin RNase activators, dose response, biochemical, fluorescence, single-stranded RNA substrate, uHTS hits (AID 588481); format: functional
[13] = target: T2, Endoribonuclease toxin MazF; assay: fluorescent RNA oligo signal without MazF, dose response, counter-screen for MazEF activator project, biochemical, fluorescence, single-stranded RNase substrate (AID 588502); format: functional
[14] = test system: INS1; assay: beta cell apoptosis inhibitors, cytokine rescue, dose response, luminescence, retest (AID 449756); format: functional, cell-based; conditions: Rattus norvegicus;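 note: cell death triggered by IL-1 beta plus TNF-alpha plus IFN-gamma mixture; protective hits raise ATP signal compared with cytokine alone wells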
[15] = target: DNA topoisomerase (Yersinia pestis, UniProt A0A2S9PM60); assay: Y. pestis Topo-I inhibitors, cleavage product readout, dose response, biochemical, cherry-pick (AID 588525)
[16] = test system: Candida albicans; assay: Candida albicans growth inhibition, agent alone, dose response, counter-screen for reversing antifungal drug resistance, CaCi-2 strain, no fluconazole, dry powder, set 4 (AID 488932); format: functional, organism-based
[17] = test system: Candida albicans; assay: growth inhibition of resistant C. albicans, dose response, CaCi-8 strain, fluconazole, dry powder, set 4 (AID 488950); format: functional, organism-based
[18] = test system: Candida albicans; assay: fluconazole resistance reversal in C. albicans, dose response, CaCi-2 strain, Alamar Blue, dry powder, set 4 (AID 488943); format: functional, organism-based
[19] = test system: INS1; assay: protection from cytokine-induced mitochondrial depolarization, dose response, cell-based, INS-1E, JC-1 fluorescence ratio, dry powder (AID 488931); format: functional; conditions: Rattus norvegicus
[20] = test system: INS1; assay: protection of INS-1E cells from cytokine death, dose response, ATP luminescence, dry powder (AID 488844); format: functional, cell-based; conditions: Rattus norvegicus
[21] = target: Phospholipase D1 (Homo sapiens, UniProt Q13393); assay: PLD1 inhibitor potency in cells, dose response (AID 602151); format: functional;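 note: cellular PLD1 assay in Calu-1 cells stimulated with PMA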
[22] = target: Phospholipase D2 (Homo sapiens, UniProt O14939); assay: PLD2 inhibitor potency in cells, dose response (AID 602147); format: functional;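 note: cellular assay in HEK293 cells overexpressing GFP-tagged PLD2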
[23] = target: Hexokinase-1 (Homo sapiens, UniProt P19367); assay: HK1 enzyme inhibition by HKDC1 hits, SAR follow-up, selectivity assay for HKDC1 inhibitor project, biochemical, set 2, resazurin fluorescence coupled readout (AID 588356); format: functional
[24] = target: T3, Hexokinase HKDC1 (Homo sapiens, UniProt Q2TB90); assay: HKDC1 hexokinase inhibitors, SAR follow-up, biochemical, set 2 (AID 588355); format: functional
T3 sequence (Q2TB90 whole entry): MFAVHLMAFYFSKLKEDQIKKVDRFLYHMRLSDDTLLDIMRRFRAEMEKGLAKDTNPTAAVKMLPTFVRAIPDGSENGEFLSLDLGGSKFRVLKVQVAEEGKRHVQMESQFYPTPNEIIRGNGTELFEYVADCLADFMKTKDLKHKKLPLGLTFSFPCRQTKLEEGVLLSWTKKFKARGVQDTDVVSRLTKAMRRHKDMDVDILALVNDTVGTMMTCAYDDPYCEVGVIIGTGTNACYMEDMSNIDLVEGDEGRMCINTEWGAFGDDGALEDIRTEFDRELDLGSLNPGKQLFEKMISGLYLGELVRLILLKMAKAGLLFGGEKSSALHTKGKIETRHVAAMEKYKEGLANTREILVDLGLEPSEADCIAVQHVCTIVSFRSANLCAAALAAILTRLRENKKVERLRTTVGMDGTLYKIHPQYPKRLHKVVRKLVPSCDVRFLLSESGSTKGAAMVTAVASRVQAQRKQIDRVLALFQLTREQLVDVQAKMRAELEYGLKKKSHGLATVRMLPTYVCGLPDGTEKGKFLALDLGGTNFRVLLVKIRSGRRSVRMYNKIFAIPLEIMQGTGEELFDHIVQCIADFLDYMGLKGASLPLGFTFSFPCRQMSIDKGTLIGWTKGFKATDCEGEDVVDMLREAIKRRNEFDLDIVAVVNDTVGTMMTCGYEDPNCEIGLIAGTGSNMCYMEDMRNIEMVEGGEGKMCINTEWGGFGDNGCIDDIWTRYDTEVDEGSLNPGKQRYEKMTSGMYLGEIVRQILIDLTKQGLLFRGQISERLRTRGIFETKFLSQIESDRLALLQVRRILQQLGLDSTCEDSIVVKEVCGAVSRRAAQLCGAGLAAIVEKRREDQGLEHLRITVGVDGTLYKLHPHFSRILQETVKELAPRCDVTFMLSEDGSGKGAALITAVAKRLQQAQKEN

[25] = target: Short transient receptor potential channel 6 (Mus musculus, UniProt Q61143); assay: TRPC6 inhibition potency of TRPC4 inhibitor analogs, dose response, selectivity assay for selective TRPC4 inhibitor project, HEK293 cells, membrane potential dye, IC50 (AID 492987); format: functional, cell-based
[26] = target: T4, Short transient receptor potential channel 4 (Mus musculus, UniProt Q9QUQ5); assay: TRPC4 inhibitor concentration-response, dose response, cell-based, HEK293 TRPC4/mu-opioid, DAMGO stimulus, Fluo-4 (AID 492994); format: functional
T4 sequence (Q9QUQ5 whole entry): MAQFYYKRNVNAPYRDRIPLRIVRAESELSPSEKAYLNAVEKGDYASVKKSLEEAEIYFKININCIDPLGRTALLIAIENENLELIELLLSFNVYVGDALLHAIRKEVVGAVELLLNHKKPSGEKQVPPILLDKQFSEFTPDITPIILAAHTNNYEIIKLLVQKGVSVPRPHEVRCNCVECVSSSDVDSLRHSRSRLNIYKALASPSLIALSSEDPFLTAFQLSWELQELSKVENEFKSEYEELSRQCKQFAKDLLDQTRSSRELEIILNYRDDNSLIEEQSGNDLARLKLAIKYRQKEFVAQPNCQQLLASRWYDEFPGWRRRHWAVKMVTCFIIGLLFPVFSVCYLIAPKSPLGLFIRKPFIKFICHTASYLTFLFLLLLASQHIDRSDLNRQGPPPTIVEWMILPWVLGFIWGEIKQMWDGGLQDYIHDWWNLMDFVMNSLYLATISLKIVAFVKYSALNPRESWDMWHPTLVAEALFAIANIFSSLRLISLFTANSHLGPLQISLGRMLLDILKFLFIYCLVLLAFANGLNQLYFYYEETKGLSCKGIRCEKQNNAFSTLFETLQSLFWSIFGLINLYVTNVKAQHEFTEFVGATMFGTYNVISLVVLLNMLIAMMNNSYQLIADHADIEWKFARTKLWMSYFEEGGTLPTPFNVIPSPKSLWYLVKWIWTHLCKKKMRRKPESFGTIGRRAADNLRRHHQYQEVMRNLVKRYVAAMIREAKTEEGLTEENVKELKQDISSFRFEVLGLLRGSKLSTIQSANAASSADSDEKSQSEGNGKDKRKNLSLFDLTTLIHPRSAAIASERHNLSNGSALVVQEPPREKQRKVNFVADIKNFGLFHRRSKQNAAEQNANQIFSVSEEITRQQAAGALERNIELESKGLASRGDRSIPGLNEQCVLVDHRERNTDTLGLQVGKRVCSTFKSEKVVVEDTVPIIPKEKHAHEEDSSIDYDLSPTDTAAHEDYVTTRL

[27] = target: T4, Short transient receptor potential channel 4; assay: SAR Analysis for the identification of selective inhibits of the transient receptor potential cation channel C4 (TRPC4): Automated Electrophysiology. [Related pubchem assays (depositor defined):AID2256]; format: functional

T2 sequence (P0AE70 whole entry): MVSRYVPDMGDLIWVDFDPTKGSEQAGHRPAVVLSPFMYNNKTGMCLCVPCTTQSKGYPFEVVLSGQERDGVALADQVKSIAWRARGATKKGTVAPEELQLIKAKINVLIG
Chain of Phospholipase D2 (O14939 whole entry): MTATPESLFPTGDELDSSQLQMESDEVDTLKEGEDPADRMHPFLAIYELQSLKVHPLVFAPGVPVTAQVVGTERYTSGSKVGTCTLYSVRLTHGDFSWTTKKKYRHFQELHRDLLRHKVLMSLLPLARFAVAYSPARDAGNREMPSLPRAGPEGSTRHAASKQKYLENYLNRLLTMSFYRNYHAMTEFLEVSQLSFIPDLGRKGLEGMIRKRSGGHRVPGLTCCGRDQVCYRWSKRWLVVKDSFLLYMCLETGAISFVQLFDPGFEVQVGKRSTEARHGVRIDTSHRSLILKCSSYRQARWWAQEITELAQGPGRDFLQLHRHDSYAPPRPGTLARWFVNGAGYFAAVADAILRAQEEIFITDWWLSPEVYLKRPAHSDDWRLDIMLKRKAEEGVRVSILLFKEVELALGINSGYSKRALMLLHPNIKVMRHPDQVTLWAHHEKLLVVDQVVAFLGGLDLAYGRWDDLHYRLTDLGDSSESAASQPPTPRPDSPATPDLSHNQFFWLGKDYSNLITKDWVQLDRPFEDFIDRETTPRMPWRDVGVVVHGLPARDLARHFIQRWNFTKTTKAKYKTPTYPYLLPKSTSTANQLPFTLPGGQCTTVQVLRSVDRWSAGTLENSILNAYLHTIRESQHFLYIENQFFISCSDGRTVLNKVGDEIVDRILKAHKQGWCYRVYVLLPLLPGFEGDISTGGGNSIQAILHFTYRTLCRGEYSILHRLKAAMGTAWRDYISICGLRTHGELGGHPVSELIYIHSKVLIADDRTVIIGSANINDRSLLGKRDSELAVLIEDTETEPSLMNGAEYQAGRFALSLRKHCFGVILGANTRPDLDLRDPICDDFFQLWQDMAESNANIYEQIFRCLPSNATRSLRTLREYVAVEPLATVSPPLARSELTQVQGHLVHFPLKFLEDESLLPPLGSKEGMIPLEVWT
Chain of Bcl-2-like protein 10 (Q9HD36 whole entry): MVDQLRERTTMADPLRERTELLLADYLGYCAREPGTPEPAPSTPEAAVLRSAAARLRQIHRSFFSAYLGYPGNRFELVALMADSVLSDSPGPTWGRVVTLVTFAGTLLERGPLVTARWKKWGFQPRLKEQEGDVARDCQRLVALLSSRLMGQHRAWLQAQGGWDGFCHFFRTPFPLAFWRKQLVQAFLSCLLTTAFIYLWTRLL
Chain of Acyl-homoserine lactone acylase PvdQ (Q9I194 24-193 limits assumed): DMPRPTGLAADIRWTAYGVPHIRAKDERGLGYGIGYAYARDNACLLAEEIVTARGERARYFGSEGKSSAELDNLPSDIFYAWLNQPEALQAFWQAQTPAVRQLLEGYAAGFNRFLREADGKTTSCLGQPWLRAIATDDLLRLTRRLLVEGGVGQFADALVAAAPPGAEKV
Chain of Acyl-homoserine lactone acylase PvdQ (Q9I194 217-762 limits assumed): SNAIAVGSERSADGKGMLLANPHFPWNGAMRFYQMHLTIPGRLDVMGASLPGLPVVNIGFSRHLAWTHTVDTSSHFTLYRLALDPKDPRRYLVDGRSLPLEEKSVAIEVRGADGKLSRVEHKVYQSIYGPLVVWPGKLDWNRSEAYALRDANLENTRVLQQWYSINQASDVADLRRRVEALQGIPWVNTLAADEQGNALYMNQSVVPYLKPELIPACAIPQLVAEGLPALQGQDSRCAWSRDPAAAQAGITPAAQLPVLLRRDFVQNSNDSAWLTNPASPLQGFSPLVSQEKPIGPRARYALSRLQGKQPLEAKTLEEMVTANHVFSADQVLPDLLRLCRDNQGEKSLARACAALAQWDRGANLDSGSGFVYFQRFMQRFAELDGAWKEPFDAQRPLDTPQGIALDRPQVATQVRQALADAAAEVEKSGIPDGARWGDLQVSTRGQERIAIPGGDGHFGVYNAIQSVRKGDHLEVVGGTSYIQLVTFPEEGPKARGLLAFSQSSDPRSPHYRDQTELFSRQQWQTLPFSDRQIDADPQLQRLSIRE
Chain of Hexokinase-1 (P19367 whole entry): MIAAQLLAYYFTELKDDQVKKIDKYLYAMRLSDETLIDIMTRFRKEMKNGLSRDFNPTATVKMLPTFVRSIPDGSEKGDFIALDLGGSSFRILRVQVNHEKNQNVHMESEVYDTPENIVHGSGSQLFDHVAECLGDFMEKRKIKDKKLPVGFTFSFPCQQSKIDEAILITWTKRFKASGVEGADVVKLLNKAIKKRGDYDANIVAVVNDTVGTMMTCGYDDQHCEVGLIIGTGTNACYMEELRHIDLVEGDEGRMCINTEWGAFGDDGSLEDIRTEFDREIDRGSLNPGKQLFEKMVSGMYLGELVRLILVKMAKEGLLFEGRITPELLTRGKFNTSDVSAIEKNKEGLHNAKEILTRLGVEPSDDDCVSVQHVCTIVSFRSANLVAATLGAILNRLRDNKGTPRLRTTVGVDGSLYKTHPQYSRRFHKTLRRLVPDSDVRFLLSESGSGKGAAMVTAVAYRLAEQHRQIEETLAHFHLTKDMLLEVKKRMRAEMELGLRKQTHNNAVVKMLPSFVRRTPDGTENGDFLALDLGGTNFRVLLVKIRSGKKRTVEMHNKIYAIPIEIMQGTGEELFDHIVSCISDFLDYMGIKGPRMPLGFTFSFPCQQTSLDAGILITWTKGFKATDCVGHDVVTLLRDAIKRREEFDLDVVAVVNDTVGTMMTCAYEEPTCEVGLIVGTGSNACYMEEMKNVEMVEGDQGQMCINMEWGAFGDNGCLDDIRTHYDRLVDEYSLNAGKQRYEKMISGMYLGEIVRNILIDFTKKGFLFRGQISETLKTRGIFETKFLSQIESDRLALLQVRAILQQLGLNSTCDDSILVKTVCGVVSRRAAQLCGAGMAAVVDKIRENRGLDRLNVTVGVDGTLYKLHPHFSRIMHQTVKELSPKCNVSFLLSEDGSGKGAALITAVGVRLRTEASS
Chain of DNA topoisomerase (A0A2S9PM60 whole entry): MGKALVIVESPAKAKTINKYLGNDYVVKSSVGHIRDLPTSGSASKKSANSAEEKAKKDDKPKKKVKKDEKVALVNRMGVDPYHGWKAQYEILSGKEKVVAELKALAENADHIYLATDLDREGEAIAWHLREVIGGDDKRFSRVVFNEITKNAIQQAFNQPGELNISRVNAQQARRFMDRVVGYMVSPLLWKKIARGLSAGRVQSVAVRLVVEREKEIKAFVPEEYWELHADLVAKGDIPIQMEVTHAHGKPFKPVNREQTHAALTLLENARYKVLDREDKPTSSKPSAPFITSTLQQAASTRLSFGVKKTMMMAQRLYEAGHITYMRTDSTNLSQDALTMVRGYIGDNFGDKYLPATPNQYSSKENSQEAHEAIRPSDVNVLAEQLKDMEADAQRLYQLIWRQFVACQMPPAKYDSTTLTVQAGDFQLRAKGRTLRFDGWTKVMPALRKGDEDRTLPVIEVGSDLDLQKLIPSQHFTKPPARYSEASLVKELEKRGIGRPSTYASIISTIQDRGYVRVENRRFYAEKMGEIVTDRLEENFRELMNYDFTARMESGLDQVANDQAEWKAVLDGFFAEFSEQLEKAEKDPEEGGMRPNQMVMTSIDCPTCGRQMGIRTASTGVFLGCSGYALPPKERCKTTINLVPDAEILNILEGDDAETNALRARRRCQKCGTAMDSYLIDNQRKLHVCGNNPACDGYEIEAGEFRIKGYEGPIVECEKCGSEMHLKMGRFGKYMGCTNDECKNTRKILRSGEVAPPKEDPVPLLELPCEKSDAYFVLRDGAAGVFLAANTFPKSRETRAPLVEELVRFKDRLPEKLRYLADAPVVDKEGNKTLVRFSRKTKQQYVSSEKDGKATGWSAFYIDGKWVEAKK
Chain of Beta-2 adrenergic receptor (P07550 whole entry): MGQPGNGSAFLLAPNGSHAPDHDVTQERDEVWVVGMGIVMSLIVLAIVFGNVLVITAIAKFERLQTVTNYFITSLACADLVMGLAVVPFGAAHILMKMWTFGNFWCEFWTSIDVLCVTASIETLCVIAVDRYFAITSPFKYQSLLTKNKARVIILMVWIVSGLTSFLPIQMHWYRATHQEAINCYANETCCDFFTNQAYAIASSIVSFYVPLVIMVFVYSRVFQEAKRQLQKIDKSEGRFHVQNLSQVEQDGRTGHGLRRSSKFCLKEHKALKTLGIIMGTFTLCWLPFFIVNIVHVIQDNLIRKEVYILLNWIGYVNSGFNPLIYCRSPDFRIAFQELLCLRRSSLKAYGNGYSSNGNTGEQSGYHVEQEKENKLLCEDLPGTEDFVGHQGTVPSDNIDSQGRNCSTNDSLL
Chain of CAAX prenyl protease 2 (Homo sapiens, UniProt Q9Y256) (Q9Y256 whole entry): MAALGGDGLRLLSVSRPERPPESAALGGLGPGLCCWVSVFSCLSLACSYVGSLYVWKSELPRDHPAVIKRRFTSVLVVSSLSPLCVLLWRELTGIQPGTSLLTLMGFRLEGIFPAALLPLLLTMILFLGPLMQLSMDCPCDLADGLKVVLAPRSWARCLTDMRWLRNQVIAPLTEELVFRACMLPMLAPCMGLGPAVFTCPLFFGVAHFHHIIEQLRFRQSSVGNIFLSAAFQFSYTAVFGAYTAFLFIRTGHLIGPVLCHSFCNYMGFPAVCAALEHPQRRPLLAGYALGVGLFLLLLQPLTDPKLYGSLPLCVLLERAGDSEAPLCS
Chain of Trypsin (P00761 whole entry): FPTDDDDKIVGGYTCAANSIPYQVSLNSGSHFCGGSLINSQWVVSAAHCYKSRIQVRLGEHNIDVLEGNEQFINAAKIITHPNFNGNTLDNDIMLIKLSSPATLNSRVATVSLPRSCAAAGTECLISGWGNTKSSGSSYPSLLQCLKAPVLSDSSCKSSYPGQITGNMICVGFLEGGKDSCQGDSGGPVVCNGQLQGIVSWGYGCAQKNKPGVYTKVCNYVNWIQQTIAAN

## CC1(C)Cc2c(c(-c3ccco3)nc3sc4c(NCCO)ncnc4c23)CO1
[1]
  IC50: > 16 µM (inactive)
[2]
  IC50: 909 nM (active)
[3]
  EC50: 13.3 nM (active)

## COc1ccc(C2=C(C=O)Cc3ccccc3O2)cc1
[4]
  AC50: > 380 µM (inactive)
[5]
  EC50: > 120 µM (not active)
[6]
  AC50: 4.37 µM (active)
[7]
  EC50: > 120 µM (not active)

## O=C1NC(=O)C2(Cc3c(nc4ccccn4c3=O)N3CCCCCC32)C(=O)N1Cc1ccccc1 (configuration not stated)
[8]
  IC50: 2.51 µM (active)

## CC1=C(C)C(C)=C(C#N)C(=C(C#N)C#N)N1
[9]
  AC50: 13.9 µM (active)
[10]
  AC50: 13.2 µM (active)
[11]
  AC50: 12.1 µM (active)

## Cc1ccc(O)c(C2=Nc3ccccc3N=C(c3ccco3)C2)c1
[12]
  EC50: > 99 µM (inactive)
[13]
  EC50: 75.1 µM (inactive)

## CC(C)(C)OC(=O)NCc1ccc(NC(=O)c2[nH]cnc2C(=O)NCCNC(=O)c2nc[nH]c2C(=O)Nc2ccc(CNC(=O)OC(C)(C)C)cc2)cc1
[14]
  AC50: 6.59 µM (active)
[15]
  AC50: 2.49 µM (active)

## O=C(c1ccc(Cl)cc1)N1CCN(c2cnccn2)CC1
[16]
  AC50: 234 µM (active)
[17]
  AC50: 10.7 µM (active)
[18]
  AC50: 12.7 µM (active)

## Cc1ccc(S(=O)(=O)N(C)C[C@@H]2Oc3c(NC(=O)Nc4ccccc4)cccc3C(=O)N([C@H](C)CO)C[C@H]2C)cc1
[19]
  AC50: 141 µM (active)
[20]
  AC50: 22.6 µM (active)

## O=C(NCCN1CCC2(CC1)C(=O)NCN2c1ccc(F)c(F)c1)c1ccc(Cl)cc1
[21]
  IC50: 2.36 µM (active)
[22]
  IC50: 370 nM (active)

## O=c1c2c(F)cccc2nc(/C=C/c2cccnc2)n1Cc1ccccc1
[23]
  IC50: > 80 µM (inactive)
[24]
  IC50: > 80 µM (inactive)

## Cc1cc(N2CCCCC2)nc2ccc(F)cc12
[25]
  IC50: 20.1 µM (active)
[26]
  IC50: 10.5 µM (active)
[27]
  IC50: 6.18 µM (active)
